Measured values as given in ChEMBL document CHEMBL3046810, “Total synthesis of cis-solamin and its inhibitory action with bovine heart mitochondrial complex I” (Tetrahedron, 2004).
pIC50: −log10 of the molar value.

Molecular target: NADH-ubiquinone oxidoreductase chain 1 (Bos taurus, UniProt P03887)
Assay: Inhibition of Bos taurus (bovine) mitochodrial complex 1 isolated from heart submitochondrial particle by NADH oxidase assay

NADH-ubiquinone oxidoreductase chain 1, sequence (P03887 whole entry): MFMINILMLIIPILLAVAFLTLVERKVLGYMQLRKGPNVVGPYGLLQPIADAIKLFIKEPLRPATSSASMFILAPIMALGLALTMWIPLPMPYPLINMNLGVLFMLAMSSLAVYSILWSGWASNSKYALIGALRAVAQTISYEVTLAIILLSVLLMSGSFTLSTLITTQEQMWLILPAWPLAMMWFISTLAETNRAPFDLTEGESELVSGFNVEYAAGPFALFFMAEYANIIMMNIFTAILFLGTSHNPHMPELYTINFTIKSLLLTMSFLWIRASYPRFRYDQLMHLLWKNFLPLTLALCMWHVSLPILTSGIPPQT

Compound | pIC50
CCCCCCCCCC[C@H](O)[C@H]1CC[C@H]([C@H]2CC[C@H]([C@H](O)CCCCCCCCCC[C@@H](O)CC3=C[C@H](C)OC3=O)O2)O1 [BULLATACIN] | 9.10
CCCCCCCCCCCC[C@@H](O)[C@H]1CC[C@H]([C@@H](O)CCCCCCCCCCCCCCC2=C[C@H](C)OC2=O)O1 [(17S, 18S, 21S, 22R)-reticulation-1] | 7.77
CCCCCCCCCCCC[C@H](O)[C@@H]1CC[C@H]([C@H](O)CCCCCCCCCCCCC2=C[C@H](C)OC2=O)O1 (stereo in doubt; 1a) [CIS-SOLAMIN] | 8.66
CCCCCCCCCCCC[C@@H](O)[C@H]1CC[C@H]([C@H](O)CCCC[C@@H](O)CCCCCCCC2=C[C@H](C)OC2=O)O1 [(10S)-COROSSOLINE] | 8.70
CCCCCCCCCCCC[C@@H](O)[C@H]1CC[C@H]([C@H](O)CCCC[C@H](O)CCCCCCCC2=C[C@H](C)OC2=O)O1 [COROSSOLINE] | 8.82
CCCCCCCCCCCC[C@H](O)[C@H]1CC[C@H]([C@H](O)CCCCCCCCCCCCCCC2=C[C@H](C)OC2=O)O1 [(17R,18R,21R,22S)-reticulation-1] | 7.80
CCCCCCCCCCCC[C@H](O)[C@@H]1CC[C@H]([C@H](O)CCCCCCCCCCCCC2=C[C@H](C)OC2=O)O1 (stereo in doubt; 1b) [CIS-SOLAMIN] | 8.68
